The target of experiment [1] is HCV NS3 protease genotype 3a (3A-1) (Hepatitis C virus genotype 3a, UniProt Q81258). Put plainly: HCV NS3 protease time-resolved fluorescence (TRF) assay, genotype 3a. It counts as biochemical. To be noted: Ki 3a. The procedure, abridged:
(§1)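 Time-resolved fluorescence, ex 340/em 615 nm, 400 μs delay; IC50 by four-parameter fit. Enzyme preincubated with compound 10 min, then TRF substrate 25 nM final added and reaction run 6 h at RT. Buffer HEPES pH 7.5 with NaCl, glycerol, Triton X-100, DTT, PEG 8000.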

Experiment [2] deals with T1, HCV genotype 1b (BK) NS3 modified enzyme with a R155K mutation (Hepatitis C virus genotype 1b, UniProt P26663, R1181K).
T1 construct: HCV genotype 1b (BK) NS3 modified enzyme
Put plainly: HCV NS3 protease time-resolved fluorescence (TRF) assay, genotype 1b R155K. Format: biochemical. To be noted: Ki 1b R155K. The procedure, abridged:
as §1

[3] abbreviates: genotype 1b (BK) NS3 R155K, single value.
The mark [4] stands for this setting: first of two values printed in the cell (not explained).
The mark [5] stands for this setting: second of two values printed in the cell (not explained).

The results in this text go back to patent publication US9328138B2 (priority 2011, dated 2016).

SMILES strings stand for the structures. pKi: −log10 of the molar value. Structures can show the parent of a compound that is named as a salt.

In the case of `C=C[C@@H]1C[C@]1(NC(=O)[C@@H]1C[C@@H]2CN1C(=O)[C@H](C(C)(C)C)NC(=O)O[C@@H]1C[C@H]1CCCCCc1c(nc3ccccc3c1OC1CCN(CC3CC3)CC1)O2)C(=O)NS(=O)(=O)C1(C)CC1` [Example 230, (1aR,5S,8S,10R,22aR)-5-tent-butyl-17-{[1-(cyclopropylmethyl)piperidin-4-yl]oxy}-N-[(1R,2S)-2-ethenyl-1-{[(1-methylcyclopropyl)sulfonyl]carbamoyl}cyclopropyl]-3,6-dioxo-1,1a,3,4,5,6,9,10,18,19,20,21,22,22a-tetradecahydro-8H-7,10-methanocyclopropa[18,19][1,10,3,6] dioxadiazacyclononadecino[11,12-b]quinoline-8-carboxamide], the pKi – broadly, −log10 of the Ki, conventionally taken in molar units – in experiment [1] is 9.42; in experiment [2] (setting [3]), 10.19.
The matching figures for `C=C[C@@H]1C[C@]1(NC(=O)[C@@H]1C[C@@H]2CN1C(=O)[C@H](C(C)(C)C)NC(=O)O[C@@H]1C[C@H]1CCCCCc1c(nc3ccccc3c1O[C@@H]1C[C@H]3C[C@@H]1CN3CCOC)O2)C(=O)NS(=O)(=O)C1(C)CC1` [Example 231, (1aR,5S,8S,10R,22aR)-5-tert-butyl-N-[(1R,2S)-2-ethenyl-1-{[(1-methylcyclopropyl)sulfonyl]carbamoyl}cyclopropyl]-17-{[(1R,4R,5R)-2-(2-methoxyethyl)-2-azabicyclo[2.2.1]hept-5-yl]oxy}-3,6-dioxo-1,1a,3,4,5,6,9,10,18,19,20,21,22,22a-tetradecahydro-8H-7,10-methanocyclopropa[18,19][1,10,3,6] dioxadiazacyclononadecino[11,12-b]quinoline-8-carboxamide]: 8.74 and 9.89.
`C=C[C@@H]1C[C@]1(NC(=O)[C@@H]1C[C@@H]2CN1C(=O)[C@H](C1(C)CCCCC1)NC(=O)O[C@@H]1C[C@H]1CCCCCc1c(nc3ccccc3c1OC1CCN(C)CC1)O2)C(=O)NS(=O)(=O)C1(C)CC1` [Example 232, (1aR,5S,8S,10R,22aR)—N-[(1R,2S)-2-ethenyl-1-{[(1-methylcyclopropyl)sulfonyl]carbamoyl}cyclopropyl]-5-(1-methylcyclohexyl)-17-[(1-methylpiperidin-4-yl)oxy]-3,6-dioxo-1,1a,3,4,5,6,9,10,18,19,20,21,22,22a-tetradecahydro-8H-7,10-methanocyclopropa[18,19][1,10,3,6]dioxadiazacyclononadecino[11,12-b]quinoline-8-carboxamide]: the pKi in experiment [1] was 9.56; in experiment [2] (setting [4]) it was 10.70; in experiment [2] (setting [5]), 10.40.
As for `C=C[C@@H]1C[C@]1(NC(=O)[C@@H]1C[C@@H]2CN1C(=O)[C@H](C1Cc3ccccc3C1)NC(=O)O[C@@H]1C[C@H]1CCCCCc1c(nc3ccccc3c1OCCCN(C)C)O2)C(=O)NS(=O)(=O)C1(C)CC1` [Example 233, (1aR,5S,8S,10R,22aR)-5-(2,3-dihydro-1H-inden-2-yl)-17-[3-(dimethylamino)propoxy]-N-[(1R,2S)-2-ethenyl-1-{[(1-methylcyclopropyl)sulfonyl]carbamoyl}cyclopropyl]-3,6-dioxo-1,1a,3,4,5,6,9,10,18,19,20,21,22,22a-tetradecahydro-8H-7,10-methanocyclopropa[18,19][1,10,3,6]dioxadiazacyclononadecino[11,12-b]quinoline-8-carboxamide], the pKi in experiment [1] was 8.38; in experiment [2] (setting [4]) it was 10.82; in experiment [2] (setting [5]) it was 10.10.
The matching figures for `C=C[C@@H]1C[C@]1(NC(=O)[C@@H]1C[C@@H]2CN1C(=O)[C@H](C(C)(C)C)NC(=O)O[C@@H]1C[C@H]1CCCCCc1c(nc3ccccc3c1OC1CCN(CC(F)(F)F)CC1)O2)C(=O)NS(=O)(=O)C1(C)CC1` [Example 234, (1aR,5S,8S,10R,22aR)-5-tert-butyl-N-[(1R,2S)-2-ethenyl-1-{[(1-methylcyclopropyl)sulfonyl]carbamoyl}cyclopropyl]-3,6-dioxo-17-{[1-(2,2,2-trifluoroethyl)piperidin-4-yl]oxy}-1,1a,3,4,5,6,9,10,18,19,20,21,22,22a-tetradecahydro-8H-7,10-methanocyclopropa[18,19][1,10,3,6]dioxadiazacyclononadecino[11,12-b]quinoline-8-carboxamide]: 7.54, 10.10 and 8.86.
The matching figures for `C=C[C@@H]1C[C@]1(NC(=O)[C@@H]1C[C@@H]2CN1C(=O)[C@H](C1CCCCC1)NC(=O)O[C@@H]1C[C@H]1CCCCCc1c(nc3ccccc3c1OC1CCN(C(=O)OC(C)(C)C)CC1)O2)C(=O)NS(=O)(=O)C1(C)CC1` [Example 235, tert-butyl 4-{[(1aR,5S,8S,10R,22aR)-5-cyclohexyl-8-{[(1R,2S)-2-ethenyl-1-{[(1-methylcyclopropyl)sulfonyl]carbamoyl}cyclopropyl]carbamoyl}-3,6-dioxo-1,1a,3,4,5,6,9,10,18,19,20,21,22,22a-tetradecahydro-8H-7,10-methanocyclopropa[18,19][1,10,3,6]dioxadiazacyclononadecino[11,12-b]quinolin-17-yl]oxy}piperidine-1-carboxylate]: 6.69, 9.28 and 8.36.
Take `C=C[C@@H]1C[C@]1(NC(=O)[C@@H]1C[C@@H]2CN1C(=O)[C@H](C1CCCCC1)NC(=O)O[C@@H]1C[C@H]1CCCCCc1c(nc3ccccc3c1OC1CCN(CC(F)(F)F)CC1)O2)C(=O)NS(=O)(=O)C1(C)CC1` [Example 236, 4-{[(1aR,5S,8S,10R,22aR)-5-cyclohexyl-8-{[(1R,2S)-2-ethenyl-1-{[(1-methylcyclopropyl)sulfonyl]carbamoyl}cyclopropyl]carbamoyl}-3,6-dioxo-1,1a,3,4,5,6,9,10,18,19,20,21,22,22a-tetradecahydro-8H-7,10-methanocyclopropa[18,19][1,10,3,6]dioxadiazacyclononadecino[11,12-b]quinolin-17-yl]oxy}-1-(2,2,2-trifluoroethyl)piperidinium formate]: the pKi was 6.96 in experiment [1], 9.48 in experiment [2] (setting [4]) and 8.26 in experiment [2] (setting [5]).
For the molecule `C=C[C@@H]1C[C@]1(NC(=O)[C@@H]1C[C@@H]2CN1C(=O)[C@H](C1CCCCC1)NC(=O)O[C@@H]1C[C@H]1CCCCCc1c(nc3ccccc3c1OC1CCN(CCOC)CC1)O2)C(=O)NS(=O)(=O)C1(C)CC1` [Example 237, 4-{[(1aR,5S,8S,10R,22aR)-5-cyclohexyl-8-{[(1R,2S)-2-ethenyl-1-{[(1-methylcyclopropyl)sulfonyl]carbamoyl}cyclopropyl]carbamoyl}-3,6-dioxo-1,1a,3,4,5,6,9,10,18,19,20,21,22,22a-tetradecahydro-8H-7,10-methanocyclopropa[18,19][1,10,3,6]dioxadiazacyclononadecino[11,12-b]quinolin-17-yl]oxy}-1-(2-methoxyethyl)piperidinium formate], the pKi was 9.10 in experiment [1], 10.89 in experiment [2] (setting [4]) and 10.01 in experiment [2] (setting [5]).
As to `C=C[C@@H]1C[C@]1(NC(=O)[C@@H]1C[C@@H]2CN1C(=O)[C@H](C1CCCCC1)NC(=O)O[C@@H]1C[C@H]1CCCCCc1c(nc3ccccc3c1OC1CCN(CC3CC3)CC1)O2)C(=O)NS(=O)(=O)C1(C)CC1` [Example 238, 4-{[(1aR,5S,8S,10R,22aR)-5-cyclohexyl-8-{[(1R,2S)-2-ethenyl-1-{[(1-methylcyclopropyl)sulfonyl]carbamoyl}cyclopropyl]carbamoyl}-3,6-dioxo-1,1a,3,4,5,6,9,10,18,19,20,21,22,22a-tetradecahydro-8H-7,10-methanocyclopropa[18,19][1,10,3,6]dioxadiazacyclononadecino[11,12-b]quinolin-17-yl]oxy}-1-(cyclopropylmethyl)piperidinium formate], the pKi is 9.05 in experiment [1], 10.51 in experiment [2] (setting [4]) and 10.33 in experiment [2] (setting [5]).
For the molecule `C=C[C@@H]1C[C@]1(NC(=O)[C@@H]1C[C@@H]2CN1C(=O)[C@H](C1CCCCC1)NC(=O)O[C@@H]1C[C@H]1CCCCCc1c(nc3ccccc3c1OC1CCN(CC)CC1)O2)C(=O)NS(=O)(=O)C1(C)CC1` [Example 239, 4-{[(1aR,5S,8S,10R,22aR)-5-cyclohexyl-8-{[(1R,2S)-2-ethenyl-1-{[(1-methylcyclopropyl)sulfonyl]carbamoyl}cyclopropyl]carbamoyl}-3,6-dioxo-1,1a,3,4,5,6,9,10,18,19,20,21,22,22a-tetradecahydro-8H-7,10-methanocyclopropa[18,19][1,10,3,6]dioxadiazacyclononadecino[11,12-b]quinolin-17-yl]oxy}-1-ethylpiperidinium formate], the pKi in experiment [1] is 9.56; in experiment [2] (setting [4]), 10.80; in experiment [2] (setting [5]) it was 10.19.
For the molecule `C=C[C@@H]1C[C@]1(NC(=O)[C@@H]1C[C@@H]2CN1C(=O)[C@H](C1CCCCC1)NC(=O)O[C@@H]1C[C@H]1CCCCCc1c(nc3ccccc3c1OCCCN1CCOCC1)O2)C(=O)NS(=O)(=O)C1(C)CC1` [Example 240, 4-(3-{[(1aR,5S,8S,10R,22aR)-5-cyclohexyl-8-{[(1R,2S)-2-ethenyl-1-{[(1-methylcyclopropyl)sulfonyl]carbamoyl}cyclopropyl]carbamoyl}-3,6-dioxo-1,1a,3,4,5,6,9,10,18,19,20,21,22,22a-tetradecahydro-8H-7,10-methanocyclopropa[18,19][1,10,3,6]dioxadiazacyclononadecino[11,12-b]quinolin-17-yl]oxy}propyl)morpholin-4-ium formate], the pKi was 8.54 in experiment [1], 10.72 in experiment [2] (setting [4]) and 9.55 in experiment [2] (setting [5]).
